Test results reported in article PMC10726347, “Discovery of Inhibitory Fragments That Selectively Target Spire2–FMN2 Interaction” (Journal of Medicinal Chemistry, 2023).
Read-outs that look alike come from different tables or passages of the source.

Tests used:
[1] = target: T1, KIND1 (Homo sapiens, UniProt Q08AE8); test: FP competition assay with FITC-labeled FSI peptide, KIND1; assay type: binding; conditions: 2.44-2500 μM, 1.17 μM KIND1
T1 construct: His6 (N, cleaved yes); made in house; host or cells: E. coli BL21 (DE3)
T1 sequence (Q08AE8 36-236): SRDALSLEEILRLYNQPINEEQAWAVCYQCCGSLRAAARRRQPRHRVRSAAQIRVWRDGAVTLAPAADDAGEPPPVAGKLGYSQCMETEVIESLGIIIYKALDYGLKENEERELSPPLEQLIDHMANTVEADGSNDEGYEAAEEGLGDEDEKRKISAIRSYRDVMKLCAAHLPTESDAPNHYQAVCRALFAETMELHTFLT
Protocol: (§1) The probe was diluted in the buffer assay (25 mM Tris, pH 7.8, 100 mM NaCl, 2 mM DTT) and added to the preplated mixtures of protein/fragment solutions. […] Each experiment was performed in triplicate with four technical replications.
(§2) Establishment of fluorescence polarization assay
(§3) The establishment of the fluorescence polarization assay was done according to protocols […]
(§4) In the first step, the affinity of the fluorescently labelled reporter peptide (FSI-peptide, FITC- […]
(§5) concentrations of KIND1 or KIND2 domains. This yielded dose-response curves that allow us to calculate the Kd of FSI-peptide.
(§6) In the next step, the working concentration of the proteins was calculated. Typically, the concentration should be in a dynamic range (0.5-0.8). For calculations, the following equation f0 = (P − Pmin)/(Pmax − Pmin)
(§7) P – fluorescence polarization in the dynamic range (0.5 -0.8) , Pmin – average minimal fluorescence polarization, Pmax – average maximal fluorescence polarization,
(§8) Taking into account Kd values for the reporter peptide, the working concentration of the proteins were calculated as follows:
(§9) c = Kd(P − Pmin)/(Pmax − P) […]

[2] = target: T1, KIND1; test: Binding to KIND1 (method not given)
[3] = target: T1, KIND1; test: Differential scanning fluorimetry (DSF) thermal shift, KIND1; assay type: binding; conditions: 1 mM fragment, 2% DMSO
[4] = target: T2, KIND2 (Homo sapiens, UniProt Q8WWL2); test: Differential scanning fluorimetry (DSF) thermal shift, KIND2
T2 sequence (Q8WWL2 18-207): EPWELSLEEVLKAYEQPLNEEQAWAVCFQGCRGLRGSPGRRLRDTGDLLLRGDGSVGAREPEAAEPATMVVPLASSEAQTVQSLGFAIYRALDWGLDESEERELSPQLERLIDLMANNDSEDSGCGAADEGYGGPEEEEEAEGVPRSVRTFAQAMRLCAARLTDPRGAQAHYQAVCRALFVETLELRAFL

[5] = target: T2, KIND2; test: FP competition assay with FITC-labeled FSI peptide, KIND2; assay type: binding; parameters: His6 (N, cleaved yes); made in house; host or cells: E. coli BL21 (DE3); conditions: for KIND2/FSI inhibitory activity in words: FP assay; for IC50: FP competition
Protocol: as §1, §2, §3, §4, §5, §6, §7, §8, §9

[6] = 2.44-2500 μM, 2.49 μM KIND2, read-out: KIND2 IC50

Compound	IC50 [1]	IC50 [5, 6]	ΔTm at 1000 µM ([4]; read-out: ΔTm)	IC50 ([5]; Table 2, KIND2, read-out: IC50)	other results
NCCNc1ccnc2cc(Cl)ccc12 [F408, N^1-(7-Chloroquinolin-4-yl)ethane-1,2-diamine]	> 2500 µM				binding to KIND1 [2]: did not bind
NCCCNc1ccnc2cc(Cl)ccc12 [F409]	> 2500 µM				
OCCCNc1ccnc2cc(Cl)ccc12 [F410]	> 2500 µM	> 2500 µM			ΔTm at 1000 µM [3]: -0.4 °C; ΔTm at 1000 µM ([4]; read-out: KIND2 ΔTm): -0.5 °C; KIND2/FSI inhibitory activity in words [5]: complete loss in activity
CN(C)CCCNc1ccnc2cc(Cl)ccc12 [F666]	> 2500 µM				
NCCCCNc1ccnc2cc(Cl)ccc12 [F667]	> 2500 µM				
Nc1ccnc2cc(Cl)ccc12 [F668]	> 2500 µM	> 2500 µM			ΔTm at 1000 µM [3]: -0.4 °C; ΔTm at 1000 µM ([4]; read-out: KIND2 ΔTm): -1 °C
Clc1ccc2c(NCCCN3CCOCC3)ccnc2c1 [F669]	> 2500 µM	> 2500 µM			ΔTm at 1000 µM [3]: -0.5 °C; ΔTm at 1000 µM ([4]; read-out: KIND2 ΔTm): -1 °C; KIND2/FSI inhibitory activity in words [5]: complete drop in potency
Clc1ccc2c(N3CCNCC3)ccnc2c1 [F671]	> 2500 µM	> 2500 µM			ΔTm at 1000 µM [3]: -1 °C; ΔTm at 1000 µM ([4]; read-out: KIND2 ΔTm): -2 °C; KIND2/FSI inhibitory activity in words [5]: complete drop in potency
OCCNc1ccnc2cc(Cl)ccc12 [compound 1, 2-((7-Chloroquinolin-4-yl)amino)ethan-1-ol]	> 2500 µM	> 2500 µM			
CN(C)CCNc1ccnc2cc(Cl)ccc12 [compound 2, N^1-(7-Chloroquinolin-4-yl)-N^2,N^2-dimethylethane-1,2-diamine]	> 2500 µM	> 2500 µM			KIND2/FSI inhibitory activity in words [5]: loss of potency
N[C@H]1CCN(c2ccnc3cc(Cl)ccc23)C1 [compound 3, (S)-1-(7-Chloroquinolin-4-yl)pyrrolidin-3-amine]	> 2500 µM	> 2500 µM			
N[C@@H]1CCN(c2ccnc3cc(Cl)ccc23)C1 [compound 4, (R)-1-(7-Chloroquinolin-4-yl)pyrrolidin-3-amine]	> 2500 µM	> 2500 µM			
N[C@H]1CCCN(c2ccnc3cc(Cl)ccc23)C1 [compound 5, (3S)-1-(7-Chloroquinolin-4-yl)piperidin-3-amine]	> 2500 µM	> 2500 µM			
N[C@@H]1CCCN(c2ccnc3cc(Cl)ccc23)C1 [compound 6, (3R)-1-(7-Chloroquinolin-4-yl)piperidin-3-amine]	> 2500 µM	> 2500 µM			
Clc1ccc2c(N[C@H]3CCCNC3)ccnc2c1 [compound 7, (S)-7-Chloro-N-(piperidin-3-yl)quinolin-4-amine]	> 2500 µM	> 2500 µM			
Clc1ccc2c(N[C@@H]3CCCNC3)ccnc2c1 [compound 8, (R)-7-Chloro-N-(piperidin-3-yl)quinolin-4-amine]	> 2500 µM	> 2500 µM			
NCCNc1ccnc2cc(C(F)(F)F)ccc12 [compound 9, N^1-(7-(Trifluoromethyl)quinolin-4-yl)ethane-1,2-diamine]			-0.4 °C	> 2500 µM	
Cc1ccc2c(NCCN)ccnc2c1 [compound 10, N^1-(7-Methylquinolin-4-yl)ethane-1,2-diamine]			2 °C	> 2500 µM	
NCCNc1ccnc2cc(Br)ccc12 [compound 11, N^1-(7-Bromoquinolin-4-yl)ethane-1,2-diamine]			1.2 °C	> 2500 µM	
NCCNc1ccnc2cc(Oc3ccccc3)ccc12 [compound 15, N^1-(7-Phenoxyquinolin-4-yl)ethane-1,2-diamine]			-0.1 °C	> 2500 µM	
NCCNc1ccnc2cc(OCc3ccccc3)ccc12 [compound 16, N^1-[7-(Benzyloxy)quinolin-4-yl]ethane-1,2-diamine]			0 °C	> 2500 µM	
NCCNc1ccnc2c(Cl)cccc12 [compound 17, N^1-(8-Chloroquinolin-4-yl)ethane-1,2-diamine]			0.8 °C	> 2500 µM	KIND2/FSI inhibitory activity in words [5]: complete loss of activity
NCCNc1ccnc2c(F)cccc12 [compound 18, N^1-(8-Fluoroquinolin-4-yl)ethane-1,2-diamine]			0.8 °C	> 2500 µM	KIND2/FSI inhibitory activity in words [5]: complete loss of activity
